Results taken from ChEMBL document CHEMBL4834430, “Design and Structure-Activity Relationships of Isothiocyanates as Potent and Selective N-Acylethanolamine-Hydrolyzing Acid Amidase Inhibitors” (J Med Chem, 2021).

Tests used:
[1] = target: T1, N-acylethanolamine-hydrolyzing acid amidase (Homo sapiens, UniProt Q02083); test: Inhibition of NAAA (unknown origin)
T1 sequence (Q02083 whole entry): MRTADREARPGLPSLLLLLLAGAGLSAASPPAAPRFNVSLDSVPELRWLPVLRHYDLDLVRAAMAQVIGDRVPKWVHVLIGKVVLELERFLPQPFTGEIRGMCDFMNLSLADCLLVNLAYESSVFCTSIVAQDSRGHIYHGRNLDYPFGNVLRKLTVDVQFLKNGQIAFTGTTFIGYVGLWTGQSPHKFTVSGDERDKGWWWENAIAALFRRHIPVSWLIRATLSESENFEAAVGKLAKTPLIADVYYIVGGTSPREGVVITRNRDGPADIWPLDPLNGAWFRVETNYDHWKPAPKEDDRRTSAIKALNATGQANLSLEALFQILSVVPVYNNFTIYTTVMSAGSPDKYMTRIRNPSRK

[2] = Half life in human liver microsomes at 1 uM in presence of NADPH by LC-MS/MS analysis; type: ADME, Microsome
[3] = Drug metabolism in rat liver microsomes assessed as […] (R)-2-amino-3-((1s,3S)-3-(2-fluoro-4-(2-methoxypyridin-3-yl)benzyloxy)cyclobutylcarbamoylthio)propanoic acid formation at 1 uM in absence of NADPH by LC-MS/MS analysis; type: ADME
[4] = Half life in rat liver microsomes at 1 uM in presence of NADPH by LC-MS/MS analysis; type: ADME, Microsome
[5] = Half life in mouse liver microsomes at 1 uM in presence of NADPH by LC-MS/MS analysis; type: ADME, Microsome
[6] = Drug metabolism in rat liver microsomes assessed as (R)-2-amino-3-((1s,3S)-3-(2-fluoro-4-(2-methoxypyridin-3-yl)benzyloxy)cyclobutylcarbamothioylthio)propanoic acid formation at 1 uM in absence of NADPH by LC-MS/MS analysis; type: ADME, Microsome
[7] = target: T1, N-acylethanolamine-hydrolyzing acid amidase; test: Inhibition of human NAAA using N-(4-methyl coumarin)-palmitamide as fluorogenic substrate preincubated for 90 mins followed by substrate addition by fluorescence assay
[8] = Drug metabolism in rat liver microsomes assessed as (2-fluoro-4-(2-methoxypyridin-3-yl)phenyl)methanol formation at 1 uM in presence of NADPH by LC-MS/MS analysis; type: ADME, Microsome
[9] = Drug metabolism in rat liver microsomes assessed as (1s,3s)-3-(2-fluoro-4-(2-methoxypyridin-3-yl)benzyloxy)cyclobutanamine formation at 1 uM in presence of NADPH by LC-MS/MS analysis; type: ADME, Microsome

Row | IC50 [1] [nM] | SMILES | half-life at 1 µM [2] [min] | Drug metabolism [3] | half-life at 1 µM [4] [min] | half-life at 1 µM [5] [min] | Drug metabolism [6] | IC50 [7] [nM] | Drug metabolism [8] | Drug metabolism [9]
1 | 9 | O=C(CCCCCc1cccc(Cl)c1)N1CCOC1=O | – | – | – | – | – | – | – | –
2 | – | COc1ncccc1-c1ccc(CO[C@H]2C[C@@H](N=C=S)C2)c(F)c1 | 15.3 | Metabolite_Detected | 14.5 | 6.8 | Metabolite_Detected | 304 | Metabolite_Detected | Metabolite_Detected
